Species: Rattus norvegicus
Test: DrugMatrix - Regimen: Daily Repeat
Format: toxicity, organism-based, Sprague-Dawley
Parameters: regimen Daily Repeat, gender Male, age 6-8 weeks
Details: in vivo, po, route oral GAVAGE, vehicle .5 % CMC; for ABSOLUTE BASOPHIL / ABSOLUTE EOSINOPHIL / ABSOLUTE LYMPHOCYTE / ABSOLUTE MONOCYTE / ABSOLUTE SEGMENTED NEUTROPHIL / BASOPHIL / EOSINOPHIL / ERYTHROCYTE COUNT / HEMATOCRIT / HEMOGLOBIN / LEUKOCYTE COUNT / LYMPHOCYTE / MEAN CORPUSCULAR HEMOGLOBIN / MEAN CORPUSCULAR HEMOGLOBIN CONCENTRATION / MEAN CORPUSCULAR VOLUME / MONOCYTE / NEUTROPHIL / NUCLEATED RED BLOOD CELLS / PLATELET COUNT: tissue Blood; for ALANINE AMINOTRANSFERASE / ALBUMIN / ALKALINE PHOSPHATASE / ASPARTATE AMINOTRANSFERASE / BLOOD UREA NITROGEN / CARBON DIOXIDE / CHLORIDE / CHOLESTEROL / CREATINE PHOSPHOKINASE / CREATININE / GLUCOSE / LACTATE DEHYDROGENASE / LIPASE / PHOSPHORUS / POTASSIUM / SODIUM / TOTAL BILIRUBIN / TOTAL PROTEIN / URIC ACID: tissue Plasma
[1] = 500 mg/kg, 72 h, dose level Low, time 3 day
[2] = 500 mg/kg, 120 h, dose level Low, time 5 day
[3] = 2000 mg/kg, 72 h, dose level High, time 3 day
[4] = 2000 mg/kg, 120 h, dose level High, time 5 day

## NC[C@H]1CC[C@H](C(=O)O)CC1 [TRANEXAMIC ACID]
[1]
  ABSOLUTE BASOPHIL: 0 CELLS/uL
  ABSOLUTE EOSINOPHIL: 94.67 CELLS/uL
  ABSOLUTE LYMPHOCYTE: 11832.33 CELLS/uL
  ABSOLUTE MONOCYTE: 147 CELLS/uL
  ABSOLUTE SEGMENTED NEUTROPHIL: 2626 CELLS/uL
  BASOPHIL: 0%
  EOSINOPHIL: 0.67%
  ERYTHROCYTE COUNT: 5.82 x10E6/uL
  HEMATOCRIT: 36.4%
  HEMOGLOBIN: 14.33 G/DL
  LEUKOCYTE COUNT: 14.7 x10E3/uL
  LYMPHOCYTE: 80.33%
  MEAN CORPUSCULAR HEMOGLOBIN: 24.63 pg
  MEAN CORPUSCULAR HEMOGLOBIN CONCENTRATION: 39.43 G/DL
  MEAN CORPUSCULAR VOLUME: 62.5 fL
  MONOCYTE: 1%
  NEUTROPHIL: 18%
  NUCLEATED RED BLOOD CELLS: 0 /100WBC
  PLATELET COUNT: 1287 x10E3/uL
  ALANINE AMINOTRANSFERASE: 49.33 u/L
  ALBUMIN: 4.3 G/DL
  ALKALINE PHOSPHATASE: 364.33 u/L
  ASPARTATE AMINOTRANSFERASE: 83 u/L
  BLOOD UREA NITROGEN: 13.67 mg/dL
  CARBON DIOXIDE: 25.33 mmol/L
  CHLORIDE: 102 MEQ/L
  CHOLESTEROL: 81 mg/dL
  CREATINE PHOSPHOKINASE: 246 u/L
  CREATININE: 0.17 mg/dL
  GLUCOSE: 155 mg/dL
  LACTATE DEHYDROGENASE: 225.67 u/L
  LIPASE: 10 u/L
  PHOSPHORUS: 14.07 mg/dL
  POTASSIUM: 6.58 MEQ/L
  SODIUM: 145.07 MEQ/L
  TOTAL BILIRUBIN: 0.2 mg/dL
  TOTAL PROTEIN: 6.07 G/DL
  URIC ACID: 1.83 mg/dL
[2]
  ABSOLUTE BASOPHIL: 0 CELLS/uL
  ABSOLUTE EOSINOPHIL: 0 CELLS/uL
  ABSOLUTE LYMPHOCYTE: 10774 CELLS/uL
  ABSOLUTE MONOCYTE: 92 CELLS/uL
  ABSOLUTE SEGMENTED NEUTROPHIL: 2034 CELLS/uL
  BASOPHIL: 0%
  EOSINOPHIL: 0%
  ERYTHROCYTE COUNT: 5.74 x10E6/uL
  HEMATOCRIT: 35.7%
  HEMOGLOBIN: 14.13 G/DL
  LEUKOCYTE COUNT: 12.9 x10E3/uL
  LYMPHOCYTE: 83.67%
  MEAN CORPUSCULAR HEMOGLOBIN: 24.67 pg
  MEAN CORPUSCULAR HEMOGLOBIN CONCENTRATION: 39.57 G/DL
  MEAN CORPUSCULAR VOLUME: 62.33 fL
  MONOCYTE: 0.67%
  NEUTROPHIL: 15.67%
  NUCLEATED RED BLOOD CELLS: 0 /100WBC
  PLATELET COUNT: 1198 x10E3/uL
  ALANINE AMINOTRANSFERASE: 58.67 u/L
  ALBUMIN: 4.17 G/DL
  ALKALINE PHOSPHATASE: 364.67 u/L
  ASPARTATE AMINOTRANSFERASE: 90.67 u/L
  BLOOD UREA NITROGEN: 15 mg/dL
  CARBON DIOXIDE: 25.67 mmol/L
  CHLORIDE: 102 MEQ/L
  CHOLESTEROL: 61 mg/dL
  CREATINE PHOSPHOKINASE: 280.67 u/L
  CREATININE: 0.21 mg/dL
  GLUCOSE: 154 mg/dL
  LACTATE DEHYDROGENASE: 250.33 u/L
  LIPASE: 9.33 u/L
  PHOSPHORUS: 12.3 mg/dL
  POTASSIUM: 6.07 MEQ/L
  SODIUM: 144.43 MEQ/L
  TOTAL BILIRUBIN: 0.17 mg/dL
  TOTAL PROTEIN: 5.9 G/DL
  URIC ACID: 1.53 mg/dL
[3]
  ABSOLUTE BASOPHIL: 0 CELLS/uL
  ABSOLUTE EOSINOPHIL: 131 CELLS/uL
  ABSOLUTE LYMPHOCYTE: 11124 CELLS/uL
  ABSOLUTE MONOCYTE: 58.67 CELLS/uL
  ABSOLUTE SEGMENTED NEUTROPHIL: 1786.33 CELLS/uL
  BASOPHIL: 0%
  EOSINOPHIL: 1%
  ERYTHROCYTE COUNT: 5.38 x10E6/uL
  HEMATOCRIT: 32.57%
  HEMOGLOBIN: 12.97 G/DL
  LEUKOCYTE COUNT: 13.1 x10E3/uL
  LYMPHOCYTE: 84%
  MEAN CORPUSCULAR HEMOGLOBIN: 24.13 pg
  MEAN CORPUSCULAR HEMOGLOBIN CONCENTRATION: 39.83 G/DL
  MEAN CORPUSCULAR VOLUME: 60.57 fL
  MONOCYTE: 0.33%
  NEUTROPHIL: 14.67%
  NUCLEATED RED BLOOD CELLS: 0 /100WBC
  PLATELET COUNT: 1338.33 x10E3/uL
  ALANINE AMINOTRANSFERASE: 49.67 u/L
  ALBUMIN: 3.9 G/DL
  ALKALINE PHOSPHATASE: 293.67 u/L
  ASPARTATE AMINOTRANSFERASE: 92 u/L
  BLOOD UREA NITROGEN: 15.33 mg/dL
  CARBON DIOXIDE: 25.33 mmol/L
  CHLORIDE: 100 MEQ/L
  CHOLESTEROL: 71.33 mg/dL
  CREATINE PHOSPHOKINASE: 923.33 u/L
  CREATININE: 0.15 mg/dL
  GLUCOSE: 161 mg/dL
  LACTATE DEHYDROGENASE: 154.33 u/L
  LIPASE: 10.33 u/L
  PHOSPHORUS: 12.03 mg/dL
  POTASSIUM: 8.02 MEQ/L
  SODIUM: 142.27 MEQ/L
  TOTAL BILIRUBIN: 0.1 mg/dL
  TOTAL PROTEIN: 5.47 G/DL
  URIC ACID: 1.53 mg/dL
[4]
  ABSOLUTE BASOPHIL: 0 CELLS/uL
  ABSOLUTE EOSINOPHIL: 40.33 CELLS/uL
  ABSOLUTE LYMPHOCYTE: 11921 CELLS/uL
  ABSOLUTE MONOCYTE: 0 CELLS/uL
  ABSOLUTE SEGMENTED NEUTROPHIL: 1438.67 CELLS/uL
  BASOPHIL: 0%
  EOSINOPHIL: 0.33%
  ERYTHROCYTE COUNT: 5.89 x10E6/uL
  HEMATOCRIT: 34.97%
  HEMOGLOBIN: 14.13 G/DL
  LEUKOCYTE COUNT: 13.4 x10E3/uL
  LYMPHOCYTE: 89%
  MEAN CORPUSCULAR HEMOGLOBIN: 24.03 pg
  MEAN CORPUSCULAR HEMOGLOBIN CONCENTRATION: 40.43 G/DL
  MEAN CORPUSCULAR VOLUME: 59.4 fL
  MONOCYTE: 0%
  NEUTROPHIL: 10.67%
  NUCLEATED RED BLOOD CELLS: 0 /100WBC
  PLATELET COUNT: 1475.33 x10E3/uL
  ALANINE AMINOTRANSFERASE: 55 u/L
  ALBUMIN: 4.23 G/DL
  ALKALINE PHOSPHATASE: 354.33 u/L
  ASPARTATE AMINOTRANSFERASE: 79 u/L
  BLOOD UREA NITROGEN: 17.33 mg/dL
  CARBON DIOXIDE: 25.67 mmol/L
  CHLORIDE: 102 MEQ/L
  CHOLESTEROL: 64.67 mg/dL
  CREATINE PHOSPHOKINASE: 364.33 u/L
  CREATININE: 0.17 mg/dL
  GLUCOSE: 150 mg/dL
  LACTATE DEHYDROGENASE: 135.67 u/L
  LIPASE: 10 u/L
  PHOSPHORUS: 12.53 mg/dL
  POTASSIUM: 7.4 MEQ/L
  SODIUM: 145 MEQ/L
  TOTAL BILIRUBIN: 0.2 mg/dL
  TOTAL PROTEIN: 6.1 G/DL
  URIC ACID: 2.6 mg/dL

Reference: ChEMBL document CHEMBL3885881, “DrugMatrix”
